# Experimental data: EP1180094B1, “FUSED POLYCYCLIC AMINO ACIDS AS PHARMACEUTICAL AGENTS” (WARNER-LAMBERT COMPANY, priority 1999, dated 2000)
# Tests used:
# [1] = system: Carrageenan Induced Thermal Hyperalgesia Model (rat); test: Carrageenan induced thermal hyperalgesia model; format: in vivo
# [2] = system: carrageenan-induced hyperalgesia model; test: Carrageenin-induced hyperalgesia, rat paw pressure test (Randall-Selitto); format: in vivo; conditions: dosed orally at 30 mg/kg
# Description: Nociceptive pressure thresholds were measured in the rat paw pressure test using an analgesimeter (Randall-Selitto method: Randall L.O. and Selitto J.J., "A method for measurement of analgesic activity on inflamed tissue," Arch. Int. Pharmacodyn., 1957;4:409-419). Male Sprague-Dawley rats (70-90 g) were trained on this apparatus before the test day. Pressure was gradually applied to the hind paw of each rat and nociceptive thresholds were determined as the pressure (g) required to elicit paw withdrawal. A cutoff point of 250 g was used to prevent any tissue damage to the paw. On the test day, two to three baseline measurements were taken before animals were administered 100 µL of 2% carrageenin by intraplantar injection into the right hind paw. […] Animals were dosed with either gabapentin ([…].), morphine (3 mg/kg, s.c.) or saline at 3.5 hours after carrageenin and nociceptive thresholds were examined at 4, 4.5, and 5 hours postcarrageenin.
# (R)-2-Aza-spiro[4.5]decane-4-carboxylic acid hydrochloride was tested in the above carrageenan-induced hyperalgesia model. The compound was dosed orally at 30 mg/kg, and 1 hour postdose gave a percent of maximum possible effect (MPE) of 53%. At 2 hours postdose, it gave only 4.6% of MPE.
Compound,Carrageenan Induced Thermal Hyperalgesia Model (rat). %MPE* at time postdose @30 mg/Kg p.o. ([1]; 1h postdose),Carrageenan Induced Thermal Hyperalgesia Model (rat). %MPE* at time postdose @30 mg/Kg p.o. ([1]; 2h postdose),percent of maximum possible effect (MPE) ([2]; 1 hour postdose),percent of maximum possible effect (MPE) ([2]; 2 hours postdose)
NCC1(CC(=O)O)Cc2ccccc2C1 [(2-aminomethyl-indan-2-yl)-acetic acid],28.5 (1h) %MPE,10 (2h) %MPE,,
Cl.O=C(O)[C@H]1CNCC12CCCCC2 [(R)-2-Aza-spiro[4.5]decane-4-carboxylic acid hydrochloride],,,53%,4.6%
